In patent US10294202B2, “Pyrrolidinones as herbicides” (FMC Corporation, priority 2013, dated 2019):

What was measured:
giant foxtail = assay: Test A pre-/postemergence herbicide test; assay type: in vivo, Setaria faberii; details: for Plant response rating, Foxtail, Giant: 0 to 100 scale
Procedure, shortened: (§1)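 Approximately 10 days after treatment in the greenhouse, plants were compared with untreated controls and given a 0–100 visual injury rating. Applications: preemergence directed soil spray; postemergence on 2–10 cm plants at the one- to two-leaf stage.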

rice = assay: Test B flooded paddy test; assay type: in vivo, Oryza sativa; details: Flood, scale of 0 to 100 where 0 is no effect and 100 is complete control
Procedure, shortened: (§2)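 Treatment was made at the 2-leaf stage by dosing the standing floodwater, kept 3 cm above soil level for the whole test. Greenhouse exposure lasted 13 to 15 days. Response is a visual percent rating relative to controls, where a dash indicates no test result.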

kochia = assay: Test A pre-/postemergence herbicide test; assay type: in vivo, Kochia scoparia; details: for Plant response rating, Kochia: 0 to 100 scale
Procedure, shortened: as §1

barnyardgrass [1] = assay: Test A pre-/postemergence herbicide test; assay type: in vivo, Echinochloa crus-galli
Procedure, shortened: as §1

ragweed = assay: Test A pre-/postemergence herbicide test; assay type: in vivo, Ambrosia elatior; details: for Plant response rating, Ragweed: 0 to 100 scale
Procedure, shortened: as §1

pigweed = assay: Test A pre-/postemergence herbicide test; assay type: in vivo, Amaranthus retroflexus; details: for Plant response rating, Pigweed: 0 to 100 scale
Procedure, shortened: as §1

sedge, umbrella = assay: Test B flooded paddy test; assay type: in vivo, Cyperus difformis; details: Flood, scale of 0 to 100 where 0 is no effect and 100 is complete control
Procedure, shortened: as §2

ryegrass, Italian = assay: Test A pre-/postemergence herbicide test; assay type: in vivo, Lolium multiflorum; details: for Plant response rating, Ryegrass, Italian: 0 to 100 scale
Procedure, shortened: as §1

corn = assay: Test A pre-/postemergence herbicide test; assay type: in vivo, Zea mays; details: Postemergence; for Plant response rating, Corn: 125 g ai/ha, 0 to 100 scale, 0 is no effect, 100 is complete control; for Corn plant response rating (0 to 100 scale, 0 is no effect, 100 is complete control): 500 g ai/ha
Procedure, shortened: as §1

wheat = assay: Test A pre-/postemergence herbicide test; assay type: in vivo, Triticum aestivum; details: Postemergence; for Plant response rating, Wheat: 125 g ai/ha, 0 to 100 scale, 0 is no effect, 100 is complete control; for Wheat plant response rating (0 to 100 scale, 0 is no effect, 100 is complete control): 500 g ai/ha
Procedure, shortened: as §1

galium = assay: Test A postemergence herbicide test; assay type: in vivo, Galium aparine; details: for Plant response rating, Galium: 125 g ai/ha, 0 to 100 scale, 0 is no effect, 100 is complete control; for Galium plant response rating (0 to 100 scale, 0 is no effect, 100 is complete control): 500 g ai/ha
Procedure, shortened: (§3)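 Potted in loam soil/sand blend; postemergence application at 1–2 leaf stage (2–10 cm). Greenhouse ~10 d. Visual injury vs untreated, 0–100 scale; 100 = complete control.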

blackgrass = assay: Test A postemergence herbicide test; assay type: in vivo, Alopecurus myosuroides; details: for Plant response rating, Blackgrass: 125 g ai/ha, 0 to 100 scale, 0 is no effect, 100 is complete control; for Blackgrass plant response rating (0 to 100 scale, 0 is no effect, 100 is complete control): 500 g ai/ha
Procedure, shortened: as §3

barnyardgrass [2] = assay: Test B flooded paddy test; assay type: in vivo, Echinochloa crus-galli; details: Flood, scale of 0 to 100 where 0 is no effect and 100 is complete control
Procedure, shortened: as §2

ducksalad = assay: Test B flooded paddy test; assay type: in vivo, Heteranthera limosa; details: Flood, scale of 0 to 100 where 0 is no effect and 100 is complete control
Procedure, shortened: as §2

[3] = 125 g ai/ha, visual rating, 0 no effect, 100 complete control, approximately 10 days, preemergence
[4] = Postemergence, 125 g ai/ha, 0 is no effect, 100 is complete control
[5] = preemergence, 500 g ai/ha, 0 is no effect and 100 is complete control
[6] = 125 g ai/ha, visual rating, 0 to 100 scale, 0 no effect, 100 complete control, approximately 10 days, preemergence
[7] = Postemergence, 125 g ai/ha, 0 to 100 scale, 0 is no effect, 100 is complete control
[8] = preemergence, 500 g ai/ha, 0 to 100 scale (0 no effect, 100 complete control)

| SMILES | Plant response rating, Foxtail, Giant (giant foxtail; [3]) | Plant response rating, Foxtail, Giant (giant foxtail; [4]) | Foxtail, Giant plant response rating (0 to 100 scale, 0 is no effect, 100 is complete control) (giant foxtail; Postemergence, 500 g ai/ha) | Plant response rating, Kochia (kochia; [3]) | Plant response rating, Kochia (kochia; [4]) | Kochia plant response rating (0 to 100 scale, 0 is no effect, 100 is complete control) (kochia; Postemergence, 500 g ai/ha) | Plant response rating, Kochia (kochia; [5]) | Plant response rating, Barnyardgrass (barnyardgrass [1]; [6]) | Plant response rating, Barnyardgrass (barnyardgrass [1]; [7]) | Barnyardgrass plant response rating (0 to 100 scale, 0 is no effect, 100 is complete control) (barnyardgrass [1]; Postemergence, 500 g ai/ha) | Plant response rating, Ragweed (ragweed; [3]) | Plant response rating, Ragweed (ragweed; [4]) | Ragweed plant response rating (0 to 100 scale, 0 is no effect, 100 is complete control) (ragweed; Postemergence, 500 g ai/ha) | Plant response rating, Ragweed (ragweed; [5]) | Plant response rating, Pigweed (pigweed; [3]) | Plant response rating, Pigweed (pigweed; [4]) | Pigweed plant response rating (0 to 100 scale, 0 is no effect, 100 is complete control) (pigweed; Postemergence, 500 g ai/ha) | Plant response rating, Pigweed (pigweed; [5]) | Plant response rating, Ryegrass, Italian (ryegrass, Italian; [3]) | Plant response rating, Ryegrass, Italian (ryegrass, Italian; [4]) | further results |
| --- | --- | --- | --- | --- | --- | --- | --- | --- | --- | --- | --- | --- | --- | --- | --- | --- | --- | --- | --- | --- | --- |
| O=C1NCC(c2cccc(C3CC3)c2)C1C(=O)Nc1ccc(F)c(F)c1F (racemic) [Compound 168] | 90 | 90 | 90 | 40 | 40 | 60 | 60 | 90 | 90 | 90 | 0 | 0 | 20 | 50 | 40 | 0 | 40 | 50 | 0 | 20 | Plant response rating, Foxtail, Giant (giant foxtail; preemergence, 500 g ai/ha): 90; Plant response rating, Rice (rice; 500 g ai/ha): 0; Plant response rating, Barnyardgrass (barnyardgrass [1]; [8]): 90; Plant response rating, Sedge, Umbrella (sedge, umbrella; 500 g ai/ha): 0; Ryegrass, Italian plant response rating (0 to 100 scale, 0 is no effect, 100 is complete control) (ryegrass, Italian; Postemergence, 500 g ai/ha): 50; Plant response rating, Ryegrass, Italian (ryegrass, Italian; [5]): 40; Plant response rating, Corn (corn): 30; Corn plant response rating (0 to 100 scale, 0 is no effect, 100 is complete control) (corn): 70; Plant response rating, Wheat (wheat): 0; Wheat plant response rating (0 to 100 scale, 0 is no effect, 100 is complete control) (wheat): 40; Plant response rating, Galium (galium): 60; Galium plant response rating (0 to 100 scale, 0 is no effect, 100 is complete control) (galium): 70; Plant response rating, Blackgrass (blackgrass): 40; Blackgrass plant response rating (0 to 100 scale, 0 is no effect, 100 is complete control) (blackgrass): 60; Plant response rating, Barnyardgrass (barnyardgrass [2]; 500 g ai/ha): 65; Plant response rating, Ducksalad (ducksalad; 500 g ai/ha): 100 |
| CCc1cccc(C2CNC(=O)C2C(=O)Nc2cccc(F)c2F)c1 (racemic) [Compound 170] | 80 | 60 | 90 | 50 | 20 | 50 | 70 | 90 | 90 | 90 | 0 | 20 | 50 | 60 | 50 | 20 | 30 | 50 | 0 | 20 | Plant response rating, Foxtail, Giant (giant foxtail; preemergence, 500 g ai/ha): 90; Plant response rating, Rice (rice; 500 g ai/ha): 15; Plant response rating, Barnyardgrass (barnyardgrass [1]; [8]): 90; Plant response rating, Sedge, Umbrella (sedge, umbrella; 500 g ai/ha): 0; Ryegrass, Italian plant response rating (0 to 100 scale, 0 is no effect, 100 is complete control) (ryegrass, Italian; Postemergence, 500 g ai/ha): 60; Plant response rating, Ryegrass, Italian (ryegrass, Italian; [5]): 50; Plant response rating, Corn (corn): 20; Corn plant response rating (0 to 100 scale, 0 is no effect, 100 is complete control) (corn): 70; Plant response rating, Wheat (wheat): 0; Wheat plant response rating (0 to 100 scale, 0 is no effect, 100 is complete control) (wheat): 60; Plant response rating, Galium (galium): 60; Galium plant response rating (0 to 100 scale, 0 is no effect, 100 is complete control) (galium): 60; Plant response rating, Blackgrass (blackgrass): 50; Blackgrass plant response rating (0 to 100 scale, 0 is no effect, 100 is complete control) (blackgrass): 60; Plant response rating, Barnyardgrass (barnyardgrass [2]; 500 g ai/ha): 85; Plant response rating, Ducksalad (ducksalad; 500 g ai/ha): 100 |
| CCc1cccc(C2CNC(=O)C2C(=O)Nc2ccc(F)c(F)c2F)c1 (racemic) [Compound 171] | 90 | 60 | 80 | 60 | 0 | 30 | 70 | 90 | 90 | 90 | 0 | 0 | 30 | 30 | 20 | 0 | 40 | 40 | 0 | 20 | Plant response rating, Foxtail, Giant (giant foxtail; preemergence, 500 g ai/ha): 90; Plant response rating, Rice (rice; 500 g ai/ha): 0; Plant response rating, Barnyardgrass (barnyardgrass [1]; [8]): 90; Plant response rating, Sedge, Umbrella (sedge, umbrella; 500 g ai/ha): 0; Ryegrass, Italian plant response rating (0 to 100 scale, 0 is no effect, 100 is complete control) (ryegrass, Italian; Postemergence, 500 g ai/ha): 30; Plant response rating, Ryegrass, Italian (ryegrass, Italian; [5]): 30; Plant response rating, Corn (corn): 20; Corn plant response rating (0 to 100 scale, 0 is no effect, 100 is complete control) (corn): 70; Plant response rating, Wheat (wheat): 0; Wheat plant response rating (0 to 100 scale, 0 is no effect, 100 is complete control) (wheat): 50; Plant response rating, Galium (galium): 50; Galium plant response rating (0 to 100 scale, 0 is no effect, 100 is complete control) (galium): 70; Plant response rating, Blackgrass (blackgrass): 50; Blackgrass plant response rating (0 to 100 scale, 0 is no effect, 100 is complete control) (blackgrass): 60; Plant response rating, Barnyardgrass (barnyardgrass [2]; 500 g ai/ha): 70; Plant response rating, Ducksalad (ducksalad; 500 g ai/ha): 100 |
| CC(C)(C)c1cccc(C2CNC(=O)C2C(=O)Nc2ccccc2C(F)(F)F)c1 (racemic) [Compound 201] | 20 | 0 | 0 | 0 | 0 | 0 | 0 | 0 | 0 | 30 | 0 | 0 | 0 | 0 | 0 | 0 | 0 | 0 | 0 | 0 | Plant response rating, Foxtail, Giant (giant foxtail; [5]): 30; Plant response rating, Rice (rice; 1000 g ai/ha): 0; Plant response rating, Barnyardgrass (barnyardgrass [1]; preemergence, 500 g ai/ha, 0 to 100 scale, 0 is no effect and 100 is complete control): 20; Plant response rating, Sedge, Umbrella (sedge, umbrella; 1000 g ai/ha): 0; Ryegrass, Italian plant response rating (0 to 100 scale, 0 is no effect, 100 is complete control) (ryegrass, Italian; Postemergence, 500 g ai/ha): 0; Plant response rating, Ryegrass, Italian (ryegrass, Italian; [5]): 0; Plant response rating, Corn (corn): 0; Corn plant response rating (0 to 100 scale, 0 is no effect, 100 is complete control) (corn): 0; Plant response rating, Wheat (wheat): 0; Wheat plant response rating (0 to 100 scale, 0 is no effect, 100 is complete control) (wheat): 0; Plant response rating, Galium (galium): 0; Galium plant response rating (0 to 100 scale, 0 is no effect, 100 is complete control) (galium): 0; Plant response rating, Blackgrass (blackgrass): 0; Blackgrass plant response rating (0 to 100 scale, 0 is no effect, 100 is complete control) (blackgrass): 0; Plant response rating, Barnyardgrass (barnyardgrass [2]; 1000 g ai/ha): 20; Plant response rating, Ducksalad (ducksalad; 1000 g ai/ha): 70 |
